The values below are quoted from earlier work in patent publication US9226893B2, “Method for storing silica-based material, package produced with the method and use of package for packaging of silica-based products” (DelSiTech Oy, priority 2006, dated 2016).

Take “lysozyme: Lysozyme released from sol-gel derived silica gel (literature, Wilson et al.)”: the “activity of released lysozyme” value (gel let to dry and age simultaneously, within few weeks) is given as “substantially reduced”. Further, for the setting “silica gel which had not dried, with or without protective agent”, the “amount of biologically active lysozyme relative to total amount of released lysozyme” value was roughly 100%.
